Results published in PubChem BioAssay AID218 (DTP/NCI, 2004).
Several values for one entry are separate records, joined by “and”; a condition that tells them apart may be missing. Equal entries are not always repeated.

Test system: C57BL/6 mice, Adenocarcinoma 755 sc, tumor weight T/C
Test: NCI In Vivo Anticancer Drug Screen. Data for tumor model Adenocarcinoma 755 (subcutaneous) in C57BL/6 mice
Details: endpoint: mean tumor weight, higher = larger tumour
Protocol: The antitumor activity of compounds was measured in mice bearing transplantable tumors. Survival or tumor size were measured and the results are expressed as the measurement made in the treated group (T) divided by the measurement made in the vehicle treated control group (C). The tumor model used in this assay is Adenocarcinoma 755 (subcutaneous) in C57BL/6 mice

[1] = dose: 20.0 mg/kg/injection, schedule: Q01DX011 (ip), vehicle: saline
[2] = dose: 25.0 mg/kg/injection, schedule: Q01DX011 (ip), vehicle: saline
[3] = dose: 30.0 mg/kg/injection, schedule: Q01DX011 (ip), vehicle: saline
[4] = dose: 0.5 mg/kg/injection, schedule: Q01DX011 (ip), vehicle: carboxymethylcellulose (CMC)
[5] = dose: 1.0 mg/kg/injection, schedule: Q01DX011 (ip), vehicle: carboxymethylcellulose (CMC)
[6] = dose: 15.0 mg/kg/injection, schedule: Q01DX011 (ip), vehicle: saline
[7] = dose: 150.0 mg/kg/injection, schedule: Q01DX011 (ip), vehicle: saline
[8] = dose: 200.0 mg/kg/injection, schedule: Q01DX011 (ip), vehicle: saline
[9] = dose: 50.0 mg/kg/injection, schedule: Q01DX011 (ip), vehicle: saline
[10] = dose: 100.0 mg/kg/injection, schedule: Q01DX011 (ip), vehicle: saline
[11] = dose: 40.0 mg/kg/injection, schedule: Q01DX011 (ip), vehicle: saline
[12] = dose: 50.0 mg/kg/injection, schedule: Q01DX011 (ip), vehicle: carboxymethylcellulose (CMC)
[13] = dose: 400.0 mg/kg/injection, schedule: Q01DX011 (ip), vehicle: saline

CN(C)c1ncnc2c1ncn2C1OC(CO)C(N)C1O (stereo not given)
T/C [1]: 23 % of control | T/C [2]: 62 % of control | T/C [3]: 13 % of control | T/C (dose: 35.0 mg/kg/injection, schedule: Q01DX011 (ip), vehicle: saline): 9 % of control

Nc1nc(=S)c2[nH]cnc2[nH]1
T/C (dose: 0.06 mg/kg/injection, schedule: Q01DX011 (ip), vehicle: carboxymethylcellulose (CMC)): 81 % of control | T/C (dose: 0.13 mg/kg/injection, schedule: Q01DX011 (ip), vehicle: carboxymethylcellulose (CMC)): 111 % of control | T/C (dose: 0.25 mg/kg/injection, schedule: Q01DX011 (ip), vehicle: carboxymethylcellulose (CMC)): 18 % of control | T/C [4]: 7 % of control and 8 % of control | T/C (dose: 0.5 mg/kg/injection, schedule: Q01DX011 (ip), vehicle: saline): 3 % of control | T/C [5]: 7 % of control

CCCNc1ncnc2c1cnn2C
T/C (dose: 10.0 mg/kg/injection, schedule: Q01DX011 (ip), vehicle: saline): 46 % of control | T/C [6]: 32 % of control | T/C [1]: 13 % of control

O=c1[nH]cnc2n[nH]nc12
T/C [7]: 55 % of control | T/C [8]: 20 % of control

Cn1cnc([N+](=O)[O-])c1Sc1ccccc1
T/C [2]: 84 % of control | T/C [9]: 47 % of control | T/C [10]: 53 % of control

c1ccc(CNc2ncnc3[nH]ncc23)cc1
T/C [2]: 27 % of control | T/C [3]: 25 % of control | T/C [11]: 4 % of control

Cn1cnc([N+](=O)[O-])c1SCc1ccccc1
T/C [9]: 52 % of control | T/C [10]: 49 % of control | T/C (dose: 125.0 mg/kg/injection, schedule: Q01DX011 (ip), vehicle: saline): 33 % of control | T/C [7]: 54 % of control | T/C (dose: 175.0 mg/kg/injection, schedule: Q01DX011 (ip), vehicle: saline): 66 % of control

CSc1nc2nc[nH]c2c(=O)[nH]1
T/C [12]: 112 % of control

Nc1ncnc2[nH]ncc12
T/C (dose: 10.0 mg/kg/injection, schedule: Q02DX006 (ip), vehicle: other): 28 % of control | T/C [6]: 7 % of control and 22 % of control | T/C [1]: 9 % of control | T/C (dose: 20.0 mg/kg/injection, schedule: Q02DX006 (ip), vehicle: other): 16 % of control | T/C (dose: 40.0 mg/kg/injection, schedule: Q02DX006 (ip), vehicle: other): 4 % of control

Cn1cnc2[nH]cnc(=S)c21
T/C [12]: 110 % of control | T/C [8]: 45 % of control | T/C (dose: 300.0 mg/kg/injection, schedule: Q01DX011 (ip), vehicle: saline): 30 % of control | T/C [13]: 22 % of control

CN(C)C1C(=O)C(C(N)=O)=C(O)C2(O)C(=O)C3=C(O)c4c(O)cccc4C(C)(O)C3C(O)C12 (stereo not given)
T/C (dose: 125.0 mg/kg/injection, schedule: Q02DX006 (ip), vehicle: water): 58 % of control | T/C (dose: 150.0 mg/kg/injection, schedule: Q02DX006 (ip), vehicle: water): 106 % of control

CS(=O)(=O)OCCC(=O)N1CCN(C(=O)CCOS(C)(=O)=O)CC1
T/C (dose: 6.25 mg/kg/injection, schedule: Q01DX011 (ip), vehicle: methylcellulose (MC)): 83 % of control | T/C (dose: 12.5 mg/kg/injection, schedule: Q01DX011 (ip), vehicle: methylcellulose (MC)): 86 % of control | T/C (dose: 25.0 mg/kg/injection, schedule: Q01DX011 (ip), vehicle: methylcellulose (MC)): 55 % of control

CCOC(=O)n1cnc2ncnc(N)c21
T/C (dose: 25.0 mg/kg/injection, schedule: Q01DX011 (ip), vehicle: carboxymethylcellulose (CMC)): 56 % of control | T/C (dose: 75.0 mg/kg/injection, schedule: Q01DX011 (ip), vehicle: carboxymethylcellulose (CMC)): 104 % of control

Oc1ccc2ccccc2c1N=Nc1ccc(F)cc1
T/C (dose: 6.25 mg/kg/injection, schedule: Q01DX011 (ip), vehicle: saline): 55 % of control | T/C (dose: 12.5 mg/kg/injection, schedule: Q01DX011 (ip), vehicle: saline): 45 % of control | T/C [2]: 37 % of control | T/C [9]: 30 % of control and 35 % of control | T/C [10]: 28 % of control | T/C [8]: 12 % of control | T/C [13]: 28 % of control

CCN(CC)c1ncnc2[nH]ncc12
T/C [11]: 25 % of control | T/C [9]: 23 % of control

CCCCNc1ncnc2[nH]ncc12
T/C [6]: 31 % of control | T/C [1]: 7 % of control | T/C [2]: 24 % of control

O=c1[nH]cc(Br)c(=O)[nH]1
T/C (dose: 50.0 mg/kg/injection, schedule: Q02DX006 (ip), vehicle: other): 56 % of control | T/C (dose: 75.0 mg/kg/injection, schedule: Q02DX006 (ip), vehicle: other): 71 % of control

O=[N+]([O-])c1ccc(CSc2ncnc3nc[nH]c23)cc1
T/C [10]: 4 % of control

N/C(=N/N=C/c1ccccc1[N+](=O)[O-])N[N+](=O)[O-]
T/C (dose: 150.0 mg/kg/injection, schedule: Q02DX006 (ip), vehicle: saline): 95 % of control | T/C (dose: 200.0 mg/kg/injection, schedule: Q02DX006 (ip), vehicle: saline): 76 % of control

CCC(C)N1C(=O)CCC1=O (stereo not given)
T/C (dose: 4.7 mg/kg/injection, schedule: Q01DX011 (ip), vehicle: saline): 102 % of control | T/C (dose: 9.4 mg/kg/injection, schedule: Q01DX011 (ip), vehicle: saline): 103 % of control | T/C (dose: 18.8 mg/kg/injection, schedule: Q01DX011 (ip), vehicle: saline): 123 % of control | T/C (dose: 37.5 mg/kg/injection, schedule: Q01DX011 (ip), vehicle: saline): 119 % of control | T/C (dose: 75.0 mg/kg/injection, schedule: Q01DX011 (ip), vehicle: saline): 59 % of control | T/C [7]: 95 % of control

NC(=S)N/N=C/c1ccc([N+](=O)[O-])cc1
T/C (dose: 75.0 mg/kg/injection, schedule: Q02DX006 (ip), vehicle: saline): 22 % of control | T/C (dose: 100.0 mg/kg/injection, schedule: Q02DX006 (ip), vehicle: saline): 31 % of control

C[C@@H]1CC2=CC(=O)C=C[C@]2(C)[C@H]2CC[C@@]3(C)[C@@H](CC[C@]3(C)O)[C@H]12
T/C (dose: 50.0 mg/kg/injection, schedule: Q01DX011 (sc), vehicle: steriod suspending solution): 70 % of control | T/C (dose: 100.0 mg/kg/injection, schedule: Q01DX011 (sc), vehicle: steriod suspending solution): 73 % of control | T/C (dose: 200.0 mg/kg/injection, schedule: Q01DX011 (sc), vehicle: steriod suspending solution): 58 % of control | T/C (dose: 400.0 mg/kg/injection, schedule: Q01DX011 (sc), vehicle: steriod suspending solution): 29 % of control

CCOC(C)C(/C=N/NC(N)=S)=NNC(N)=S (stereo not given)
T/C (dose: 120.0 mg/kg/injection, schedule: Q01DX011 (ip), vehicle: saline): 59 % of control

[I][Hg][CH2]C1OCCOC1[CH2][Hg][I] (stereo not given)
T/C (dose: 4.0 mg/kg/injection, schedule: Q01DX011 (ip), vehicle: carboxymethylcellulose (CMC)): 84 % of control | T/C (dose: 8.0 mg/kg/injection, schedule: Q01DX011 (ip), vehicle: carboxymethylcellulose (CMC)): 46 % of control | T/C (dose: 16.0 mg/kg/injection, schedule: Q01DX011 (ip), vehicle: carboxymethylcellulose (CMC)): 34 % of control | T/C (dose: 32.0 mg/kg/injection, schedule: Q01DX011 (ip), vehicle: carboxymethylcellulose (CMC)): 44 % of control

O=c1[nH][nH]c(=O)[nH]1
T/C [8]: 85 % of control | T/C (dose: 225.0 mg/kg/injection, schedule: Q01DX011 (ip), vehicle: saline): 94 % of control

c1cn[nH]c1
T/C (dose: 8.0 mg/kg/injection, schedule: Q01DX006 (iv), vehicle: saline): 64 % of control | T/C (dose: 12.5 mg/kg/injection, schedule: Q01DX011 (oral), vehicle: saline): 61 % of control | T/C (dose: 25.0 mg/kg/injection, schedule: Q01DX011 (oral), vehicle: saline): 45 % of control | T/C (dose: 32.0 mg/kg/injection, schedule: Q01DX006 (iv), vehicle: saline): 94 % of control | T/C (dose: 50.0 mg/kg/injection, schedule: Q01DX011 (oral), vehicle: saline): 9 % of control | T/C (dose: 64.0 mg/kg/injection, schedule: Q01DX006 (iv), vehicle: saline): 53 % of control

CCCCOC(=O)C1(N)CCCC1
T/C (dose: 28.0 mg/kg/injection, schedule: Q01DX011 (ip), vehicle: saline): 52 % of control | T/C (dose: 56.0 mg/kg/injection, schedule: Q01DX011 (ip), vehicle: saline): 24 % of control

Nc1nc(=S)c2ncn(C3OC(CO)C(O)C3O)c2[nH]1 (stereo not given)
T/C [4]: 48 % of control | T/C [5]: 13 % of control | T/C (dose: 2.0 mg/kg/injection, schedule: Q01DX011 (ip), vehicle: carboxymethylcellulose (CMC)): 2 % of control
